Results on 26 molecules are retold here after patent US11524966B1 (Valo Early Discovery, Inc., priority 2017, dated 2022).

Each structure is given as a SMILES string.

The target in this assay is T1, USP28 (His-tagged USP28-FL-mammalian) (Homo sapiens, UniProt Q96RU2).
T1 construct: Expression of USP28 (1-1077)-TEV-6*His (pTT5 vector); made in house; host or cells: Expi293f cells (pTT5 vector)
T1 sequence (Q96RU2 1-1077): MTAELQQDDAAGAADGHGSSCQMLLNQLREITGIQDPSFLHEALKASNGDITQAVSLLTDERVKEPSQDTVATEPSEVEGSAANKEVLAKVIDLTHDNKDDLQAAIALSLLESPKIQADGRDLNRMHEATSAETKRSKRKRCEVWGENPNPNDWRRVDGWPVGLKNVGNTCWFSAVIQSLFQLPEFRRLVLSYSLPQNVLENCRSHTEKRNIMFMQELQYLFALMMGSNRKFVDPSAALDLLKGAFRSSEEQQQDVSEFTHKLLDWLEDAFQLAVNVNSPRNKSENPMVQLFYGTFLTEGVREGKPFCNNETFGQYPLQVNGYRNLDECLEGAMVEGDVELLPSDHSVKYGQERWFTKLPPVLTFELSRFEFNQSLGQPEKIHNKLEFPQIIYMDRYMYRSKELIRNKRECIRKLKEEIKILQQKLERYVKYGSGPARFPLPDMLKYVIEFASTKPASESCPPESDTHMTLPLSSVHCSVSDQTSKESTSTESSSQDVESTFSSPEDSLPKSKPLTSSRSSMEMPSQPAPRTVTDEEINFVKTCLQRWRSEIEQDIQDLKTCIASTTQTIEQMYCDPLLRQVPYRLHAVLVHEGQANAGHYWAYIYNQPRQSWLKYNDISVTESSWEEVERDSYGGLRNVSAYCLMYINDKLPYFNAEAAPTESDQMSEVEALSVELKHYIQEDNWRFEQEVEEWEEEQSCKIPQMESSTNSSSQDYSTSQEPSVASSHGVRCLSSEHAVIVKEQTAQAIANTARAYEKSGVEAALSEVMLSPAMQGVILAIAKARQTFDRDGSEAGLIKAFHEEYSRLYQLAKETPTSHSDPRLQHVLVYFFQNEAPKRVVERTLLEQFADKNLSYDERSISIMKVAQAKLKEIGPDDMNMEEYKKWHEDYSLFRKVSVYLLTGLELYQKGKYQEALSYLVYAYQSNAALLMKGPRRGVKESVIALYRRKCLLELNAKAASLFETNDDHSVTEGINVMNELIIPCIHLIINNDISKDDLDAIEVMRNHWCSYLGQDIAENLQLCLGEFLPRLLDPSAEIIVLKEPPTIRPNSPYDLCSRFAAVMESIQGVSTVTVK
Put plainly: Ubiquitin-Rhodamine 110 Assay for USP28 Activity, Example A-1(a). The note with it: Ubiquitin-Rhodamine 110 assay, Example A-1(a); read-out: USP28 A-1(a) IC50 range. The class given is biochemical. Summed up:
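Full-length His-tagged human USP28 (1-1077, Expi293f-expressed), […], with 25 nM Ub-Rh110 (<<Km) in pH 8.0 Tris buffer with BME, BGG, Triton X-100. 10-point dilutions (25 μM-1.3 nM), 45 min at room temperature, citric acid stop, fluorescence 485/535 nm; IC50 by 4-parameter fit.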

For `Cc1ccc2c(N)c(C(=O)N[C@H]3COc4cc(N5CC6CNC[C@](C)(C5)O6)cc(F)c4C3)sc2n1` [Example 413, 3-amino-N-[(3R)-5-fluoro-7-[(1R)-1-methyl-9-oxa-3,7-diazabicyclo[3.3.1]nonan-3-yl]-3,4-dihydro-2H-1-benzopyran-3-yl]-6-methylthieno[2,3-b]pyridine-2-carboxamide], the half-inhibitory concentration (IC50) fell in the range of 1 to 50 nM.
With `Cc1ccc2c(N)c(C(=O)N[C@H]3COc4cc(N5CC6CNC[C@@](C)(C5)O6)cc(F)c4C3)sc2n1` [Example 414, 3-amino-N-[(3R)-5-fluoro-7-[(1S)-1-methyl-9-oxa-3,7-diazabicyclo[3.3.1]nonan-3-yl]-3,4-dihydro-2H-1-benzopyran-3-yl]-6-methylthieno[2,3-b]pyridine-2-carboxamide] the figure was 50 to 200 nM; with `CO[C@@H]1CN(c2cc3c(c(F)c2F)C[C@@H](NC(=O)c2sc4nc(C)ccc4c2N)CO3)C[C@H]1N` [Example 415, 3-amino-N-[(3R)-7-[(3R,4R)-3-amino-4-methoxypyrrolidin-1-yl]-5,6-difluoro-3,4-dihydro-2H-1-benzopyran-3-yl]-6-methylthieno[2,3-b]pyridine-2-carboxamide], 1 to 50 nM; with `CO[C@H]1CN(c2cc3c(c(F)c2F)C[C@@H](NC(=O)c2sc4nc(C)ccc4c2N)CO3)C[C@@H]1N` [Example 416, 3-amino-N-[(3R)-7-[(3S,4S)-3-amino-4-methoxpyrrolidin-1-yl]-5,6-difluoro-3,4-dihydro-2H-1-benzopyran-3-yl]-6-methylthieno[2,3-b]pyridine-2-carboxamide], 1 to 50 nM.
As to `Cc1ccc2c(N)c(C(=O)N[C@H]3CCc4cc(N5CCNCC5)c(F)c(F)c4C3)sc2n1` [Example 417, 3-amino-N-[(2S)-7,8-difluoro-6-(piperazin-1-yl)-1,2,3,4-tetrahydronaphthalen-2-yl]-6-methylthieno[2,3-b]pyridine-2-carboxamide], the IC50 was 200 to 2000 nM.
Take `Cc1ccc2c(N)c(C(=O)N[C@@H]3CCc4cc(N5CCNCC5)c(F)c(F)c4C3)sc2n1` [Example 418, 3-amino-N-[(2R)-7,8-difluoro-6-(piperazin-1-yl)-1,2,3,4-tetrahydronaphthalen-2-yl]-6-methylthieno[2,3-b]pyridine-2-carboxamide]: the IC50 was 50 to 200 nM.
Consider `Cc1cnc2c(N)c(C(=O)N[C@H]3CCc4cc(N5CC6CNCC(C5)O6)ccc4C3)sc2n1` [Example 448, N-((2S)-6-(9-oxa-3,7-diazabicyclo[3.3.1]nonan-3-yl)-1,2,3,4-tetrahydronaphthalen-2-yl)-7-amino-3-methylthieno[2,3-b]pyrazine-6-carboxamide], for which the IC50 lay within 1 to 50 nM.
Take `Cc1cnc2c(N)c(C(=O)N[C@@H]3CCc4cc(N5CC6CNCC(C5)O6)ccc4C3)sc2n1` [Example 450, N-((2R)-6-(9-oxa-3,7-diazabicyclo[3.3.1]nonan-3-yl)-1,2,3,4-tetrahydronaphthalen-2-yl)-7-amino-3-methylthieno[2,3-b]pyrazine-6-carboxamide]: the IC50 fell in the range of 200 to 2000 nM.
`Cc1ccc2c(N)c(C(=O)N[C@@H]3CCc4cc(N5CC6CNCC(C5)O6)ccc4C3)sc2n1` [Example 451, N-((2R)-6-(9-oxa-3,7-diazabicyclo[3.3.1]nonan-3-yl)-1,2,3,4-tetrahydronaphthalen-2-yl)-3-amino-6-methylthieno[2,3-b]pyridine-2-carboxamide]: the half-maximal inhibitory concentration (IC50) lay within 50 to 200 nM.
Take `Cc1cnc2c(N)c(C(=O)N[C@@H]3CCc4cc(N5CCCNCC5)ccc4C3)sc2n1` [Example 452, (R)-N-(6-(1,4-diazepan-1-yl)-1,2,3,4-tetrahydronaphthalen-2-yl)-7-amino-3-methylthieno[2,3-b]pyrazine-6-carboxamide]: the IC50 is 200 to 2000 nM.
As to `Cc1cnc2c(N)c(C(=O)N[C@H]3CCc4cc(N5CCCNCC5)ccc4C3)sc2n1` [Example 455, (S)-N-(6-(1,4-diazepan-1-yl)-1,2,3,4-tetrahydronaphthalen-2-yl)-7-amino-3-methylthieno[2,3-b]pyrazine-6-carboxamide], the IC50 was in the range of 50 to 200 nM.
On to `Cc1cnc2c(N)c(C(=O)N[C@H]3CCc4cc(N5CC6COCC(C5)N6)ccc4C3)sc2n1` [Example 456, N-((2S)-6-(3-oxa-7,9-diazabicyclo[3.3.1]nonan-7-yl)-1,2,3,4-tetrahydronaphthalen-2-yl)-7-amino-3-methylthieno[2,3-b]pyrazine-6-carboxamide], for which the concentration for half-maximal inhibition (IC50) was 50 to 200 nM.
`Cc1cccc2c(C(=O)N[C@H]3COc4cc(N5CCNCC5)ccc4C3)cnn12` [Example 458, (R)-7-methyl-N-(7-(piperazin-1-yl)chroman-3-yl)pyrazolo[1,5-a]pyridine-3-carboxamide]: the half-inhibitory concentration (IC50) lay within 1 to 50 nM.
As to `CC(=O)N1CCCc2cc(C(=O)N[C@H]3COc4cc(N5CCNCC5)ccc4C3)ccc21` [Example 459, (R)-1-acetyl-N-(7-(piperazin-1-yl)chroman-3-yl)-1,2,3,4-tetrahydroquinoline-6-carboxamide], the 50% inhibitory concentration (IC50) was over 2000 nM.
For `O=C(N[C@H]1COc2cc(N3CCNCC3)ccc2C1)c1cnn2ccccc12` [Example 460, (R)-N-(7-(piperazin-1-yl)chroman-3-yl)pyrazolo[1,5-a]pyridine-3-carboxamide], the concentration for half-maximal inhibition (IC50) is over 2000 nM.
As for `COc1ccn2ncc(C(=O)N[C@H]3COc4cc(N5CCNCC5)ccc4C3)c2c1` [Example 461, (R)-5-methoxy-N-(7-(piperazin-1-yl)chroman-3-yl)pyrazolo[1,5-a]pyridine-3-carboxamide], the IC50 was over 2000 nM.
Turning to `O=C(N[C@H]1COc2cc(N3CCNCC3)ccc2C1)c1cnn2cc(Cl)ccc12` [Example 462, (R)-6-chloro-N-(7-(piperazin-1-yl)chroman-3-yl)pyrazolo[1,5-a]pyridine-3-carboxamide], the half-maximal inhibitory concentration (IC50) is over 2000 nM.
Consider `Cc1cc(C)n2ncc(C(=O)N[C@H]3COc4cc(N5CCNCC5)ccc4C3)c2n1` [Example 463, (R)-5,7-dimethyl-N-(7-(piperazin-1-yl)chroman-3-yl)pyrazolo[1,5-a]pyrimidine-3-carboxamide], for which the half-inhibitory concentration (IC50) is over 2000 nM.
`O=C(N[C@H]1COc2cc(N3CCNCC3)ccc2C1)c1cn2nc(Cl)ccc2n1` [Example 464, (R)-6-chloro-N-(7-(piperazin-1-yl)chroman-3-yl)imidazo[1,2-b]pyridazine-2-carboxamide]: the half-maximal inhibitory concentration (IC50) is over 2000 nM.
The result for `Cc1ccn2ncc(C(=O)N[C@H]3COc4cc(N5CCNCC5)ccc4C3)c2c1` [Example 465, (R)-5-methyl-N-(7-(piperazin-1-yl)chroman-3-yl)pyrazolo[1,5-a]pyridine-3-carboxamide] reads over 2000 nM; that for `O=C(N[C@H]1COc2cc(N3CCNCC3)ccc2C1)c1cnn2cccnc12` [Example 466, (R)-N-(7-(piperazin-1-yl)chroman-3-yl)pyrazolo[1,5-a]pyrimidine-3-carboxamide], over 2000 nM; that for `O=C(N[C@H]1COc2cc(N3CCNCC3)ccc2C1)c1ccc(NCc2cccc(Cl)c2)nc1` [Example 467, (R)-6-((3-chlorobenzyl)amino)-N-(7-(piperazin-1-yl)chroman-3-yl)nicotinamide], 200 to 2000 nM.
With `O=C(N[C@H]1COc2cc(N3CCNCC3)ccc2C1)c1ccc(NCc2cccnc2)nc1` [Example 468, (R)-N-(7-(piperazin-1-yl)chroman-3-yl)-6-((pyridin-3-ylmethyl)amino)nicotinamide] the figure was 200 to 2000 nM; with `O=C(N[C@H]1COc2cc(N3CCNCC3)ccc2C1)c1ccc(NCc2cccc(C(F)(F)F)c2)nc1` [Example 469, (R)-N-(7-(piperazin-1-yl)chroman-3-yl)-6-((3-(trifluoromethyl)benzyl)amino)nicotinamide], 50 to 200 nM.
For `O=C(N[C@H]1COc2cc(N3CCNCC3)ccc2C1)c1ccc(NCc2ccccn2)nc1` [Example 470, (R)-N-(7-(piperazin-1-yl)chroman-3-yl)-6-((pyridin-2-ylmethyl)amino)nicotinamide], the concentration for half-maximal inhibition (IC50) was over 2000 nM.
Turning to `O=C(N[C@H]1COc2cc(N3CCNCC3)ccc2C1)c1ccc(NCc2ccc3c(c2)OCCO3)nc1` [Example 471, (R)-6-(((2,3-dihydrobenzo[b][1,4]dioxin-6-yl)methyl)amino)-N-(7-(piperazin-1-yl)chroman-3-yl)nicotinamide], the IC50 was in the range of 200 to 2000 nM.

As usually defined, the IC50 is the concentration at which inhibition is half-maximal.
